Experimental data from ChEMBL document CHEMBL2375269, “Triazolothiadiazoles and triazolothiadiazines--biologically attractive scaffolds” (Eur J Med Chem, 2013).
In brackets after ≈: the same amount, converted by molar mass.

What was measured:
[1] = tested on: Radical scavenging activity; assay: Antioxidant activity of the compound assessed as DPPH radical scavenging activity after 30 mins by spectrophotometry; format: functional
Shigella flexneri = assay: Antibacterial activity against Shigella flexneri after 24 hrs by serial tube dilution method; format: functional
Escherichia coli = assay: Antibacterial activity against Escherichia coli after 24 hrs by serial tube dilution method; format: functional
Bacillus subtilis = assay: Antibacterial activity against Bacillus subtilis after 24 hrs by serial tube dilution method; format: functional
Staphylococcus aureus = assay: Antibacterial activity against Staphylococcus aureus after 24 hrs by serial tube dilution method; format: functional
[2] = Inhibition of acetylcholine esterase (unknown origin) using acetylthiocholine as substrate incubated for 15 mins prior to substrate addition measured after 5 mins by spectrophotometry; parameters: species or system Homo sapiens
[3] = Inhibition of urease (unknown origin) assessed as ammonia synthesis after 30 mins by microplate reader analysis; parameters: species or system Homo sapiens
[4] = target: Intestinal-type alkaline phosphatase (Bos taurus, UniProt P19111); assay: Inhibition of calf intestinal alkaline phosphatase using p-NPP as substrate incubated for 10 mins prior to substrate addition measured after 30 mins by spectrophotometry
Intestinal-type alkaline phosphatase, sequence (P19111 whole entry): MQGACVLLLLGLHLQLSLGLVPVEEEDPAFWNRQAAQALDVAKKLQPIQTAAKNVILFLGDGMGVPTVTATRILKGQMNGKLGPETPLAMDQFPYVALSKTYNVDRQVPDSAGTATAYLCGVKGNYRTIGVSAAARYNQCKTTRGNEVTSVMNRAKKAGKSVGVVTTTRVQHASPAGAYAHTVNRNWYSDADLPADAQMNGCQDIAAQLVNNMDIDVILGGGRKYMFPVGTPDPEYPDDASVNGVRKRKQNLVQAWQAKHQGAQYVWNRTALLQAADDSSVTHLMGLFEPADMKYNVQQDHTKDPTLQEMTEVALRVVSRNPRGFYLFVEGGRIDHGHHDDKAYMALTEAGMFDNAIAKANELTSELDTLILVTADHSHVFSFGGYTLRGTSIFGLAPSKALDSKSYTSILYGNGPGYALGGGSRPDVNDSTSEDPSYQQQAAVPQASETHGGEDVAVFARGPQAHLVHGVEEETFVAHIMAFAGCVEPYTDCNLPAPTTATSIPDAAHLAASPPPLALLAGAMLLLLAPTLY

Structure (SMILES)	IC50 [2] [µM]	further results
CCCOC(=O)c1cc(O)c(O)c(O)c1 [PROPYL GALLATE]	–	IC50 [1]: 40.8 µM
Fc1cnc(-c2nn3c(-c4ccccc4Cl)nnc3s2)c(F)c1	–	MIC (Shigella flexneri): 0.156 µg/mL (≈ 0.446 µM); MIC (Escherichia coli): 0.156 µg/mL (≈ 0.446 µM); MIC (Bacillus subtilis): 0.156 µg/mL (≈ 0.446 µM); MIC (Staphylococcus aureus): 0.156 µg/mL (≈ 0.446 µM)
COc1ccccc1-c1nnc2sc(-c3ccoc3)nn12	1.78	–
COc1ccc(-c2nnc3sc(-c4ccoc4)nn23)cc1	1.78	IC50 [3]: 0.764 µM; Ki [3]: 0.45 µM
Brc1ccc(-c2nnc3sc(-c4ccoc4)nn23)cc1	1.78	IC50 [4]: 0.061 µM
COc1cccc(Cc2nnc3sc(-c4ccc(Cl)cc4)nn23)c1	–	IC50 [1]: 9.04 µM
Fc1cccc(Cc2nnc3sc(-c4ccoc4)nn23)c1	1.78	IC50 [1]: 31.5 µM
Brc1cccc(-c2nnc3sc(-c4ccoc4)nn23)c1	0.344	–
Clc1ccc(-c2nnc3sc(-c4ccoc4)nn23)cc1	1.78	–
Fc1ccccc1Cc1nnc2sc(-c3ccoc3)nn12	1.78	–
Clc1ccccc1-c1nnc2sc(-c3ccoc3)nn12	1.78	–
Fc1ccc(Cc2nnc3sc(-c4ccoc4)nn23)cc1	1.78	–
COc1cccc(-c2nnc3sc(-c4ccoc4)nn23)c1	1.78	–
